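Growth conditions: 96-well plates. Treatment: test compound, 48 hours, 5 concentrations. Analysis: linear interpolation between bracketing concentrations; unreached endpoints set to highest concentration. At the TGI there is no net growth.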
Experiments:
Test in all cases: growth of human tumour cells (NCI), 48 h
IGROV1 ovarian = tested on: IGROV1 ovarian
A498 renal = tested on: A498 renal
LOX IMVI melanoma = tested on: LOX IMVI melanoma
HCT-15 colon = tested on: HCT-15 colon
SR leukemia = tested on: SR leukemia
COLO 205 colon = tested on: COLO 205 colon
NCI-H23 lung = tested on: NCI-H23 lung
OVCAR-3 ovarian = tested on: OVCAR-3 ovarian
SN12C renal = tested on: SN12C renal
SNB-19 CNS = tested on: SNB-19 CNS

SMILES	TGI (IGROV1 ovarian) [µM]	TGI (A498 renal) [µM]	TGI (LOX IMVI melanoma) [µM]	TGI (HCT-15 colon) [µM]	TGI (SR leukemia) [µM]	TGI (COLO 205 colon) [µM]	TGI (NCI-H23 lung) [µM]	TGI (OVCAR-3 ovarian) [µM]	TGI (SN12C renal) [µM]	TGI (SNB-19 CNS) [µM]
CCCCCCCCCCCCCCCC(=O)N(CCCCCCCCCCC(=O)O)CC(O)C(O)C(OC1OC(CO)C(O)C(O)C1O)C(O)CO (stereo unspecified)	> 100	> 100	35.1	> 100	49.9	32.6	> 100	> 100	40.1	52.9
O=C(Cc1ccccc1)Nn1c(-c2ccccc2)nc2ccccc2c1=O	> 100	> 100	> 100	–	> 100	> 100	> 100	> 100	> 100	> 100
CCOC(=O)C(NC(=O)c1ccccc1)(N1CCOCC1)C(F)(F)F (stereo unspecified)	> 100	–	> 100	> 100	> 100	> 100	> 100	> 100	> 100	> 100
CC[C@H]1C=CCC[C@@]2(C[C@@H]3CC[C@H]4[C@@H](C(=O)OCCCCCCCCCCCCCCCC(=O)N(CCCN)C[C@@H](O)CCN)[C@@]5(CCC[C@@H](C)O5)NC(=[N+]34)N2)O1	3.13	6.62	3.35	> 10	3.78	3.79	3.51	> 10	9.33	–
O=C(O)CC1NCc2cc3ccccc3nc21 (stereo unspecified)	> 100	> 100	> 100	> 100	> 100	> 100	> 100	> 100	> 100	> 100
FC(F)(F)c1cccc(-c2nc3ccccc3c3c2[C@@]2(N4CCCC4)CCCC[C@@H]32)c1	37.4	95.6	38.6	–	> 100	30.4	> 100	> 100	> 100	> 100
CCCCCCCCCCCCOCCCOP(=O)([O-])OCC[N+](C)(C)C	25.6	83.6	59.8	> 73.3	> 73.5	31.7	99.2	> 100	> 76.7	46.9
COC(C)(C)C1(O)CCC(C)CC1=O (stereo unspecified)	> 100	> 100	–	> 100	> 100	> 100	> 100	> 100	> 100	> 100
C=CCO[C@]1(CC=C)C(=O)C(=O)OC1C1COC(C)(C)O1 (stereo partly specified)	> 100	> 100	31.5	42	67	37.5	> 100	> 100	> 100	> 100
COC(=O)[C@H](Cc1c[nH]c2ccccc12)NC(=O)c1ccc(CNC(=O)/C=C/c2cccc(Oc3ccccc3)c2)cc1	> 100	> 100	–	> 100	> 100	> 100	> 100	> 100	> 100	> 100
COc1cc2c(=O)cnoc2cc1O	> 100	> 100	–	> 100	> 100	> 100	> 100	> 100	> 100	> 100
O=C(NCc1cccc2ccccc12)N/N=C\c1ccc(Cl)cc1	> 100	–	> 100	> 100	> 100	> 100	> 100	> 100	> 100	> 100
COC(=O)c1cnc(Cl)cn1	97.1	–	> 100	38.5	> 100	> 100	54	–	> 100	> 100
O=[N+]([O-])c1ccc(C=NCC2CCCN3CCCCC23)cc1 (stereo unspecified)	> 100	> 100	30.4	> 100	> 100	> 100	> 100	–	> 100	> 100
COc1ccc(N2C=Nn3c(nc4sc5c(c4c3=O)CCCC5)C2)cc1	> 100	41.8	> 100	> 100	> 100	> 100	> 100	> 100	> 100	> 100
Cc1noc(NC2=CC(=O)C(=O)c3ccccc32)c1C	–	> 100	> 100	> 100	> 100	> 100	35.5	> 100	3.7	> 100
COc1c(O)cc2c(c1O)C(=O)/C(=C/c1ccc(O)cc1)CO2	80.8	> 100	53.1	38.2	40.9	32.5	> 100	55.5	55.5	> 100
COc1ccc(C2C3COc4ccccc4C3=NN2c2ccccc2)cc1 (stereo unspecified)	> 100	> 100	> 100	> 100	> 100	> 100	> 100	> 100	–	> 100
Cc1ccc(/C(O)=C/c2nc3ccccc3s/c2=N/CS(=O)(=O)c2ccc(C)cc2)cc1	> 10	–	> 10	> 10	> 10	> 10	> 10	> 10	> 10	> 10
Cc1ccc2oc(=O)c(C(=O)Nc3nc(C45CC6CC(CC(C6)C4)C5)cs3)cc2c1	> 100	> 100	> 100	> 100	> 100	> 100	> 100	> 100	> 100	> 100
O=C(CNc1ccccc1[N+](=O)[O-])Nn1c(-c2ccccc2)nc2ccccc2c1=O	34.8	81.1	24.7	44.3	71.7	53.9	76.5	> 100	63.1	47.8

Source: PubChem BioAssay (NCI)
